Experimental data reported in the NIST ThermoML archive (doi:10.1021/je600519p).
Numbers after ± are expanded uncertainties.

Test: xn = mol fraction of the nth substance listed
Details: 101 kPa, Liquid

CC(=O)c1ccccc1 [acetophenone] + CCCCCCO
Details | mass density, 293.15 K [kg/m3] | mass density, 303.15 K [kg/m3] | speed of sound, 293.15 K [m/s] | speed of sound, 303.15 K [m/s] | viscosity, 293.15 K [mPa·s] | viscosity, 303.15 K [mPa·s]
x1 = 0.0498 | 828.69 ± 0.73 | 821.41 ± 0.74 | 1316 ± 11 | 1285 ± 11 | 4.831 ± 0.21 | 3.559 ± 0.16
x1 = 0.1009 | 838.84 ± 0.71 | 831.48 ± 0.72 | 1323 ± 11 | 1293 ± 11 | 4.397 ± 0.19 | 3.262 ± 0.15
x1 = 0.1517 | 848.99 ± 0.69 | 841.54 ± 0.7 | 1331 ± 11 | 1302 ± 11 | 3.997 ± 0.18 | 2.989 ± 0.13
x1 = 0.2106 | 860.83 ± 0.66 | 853.28 ± 0.68 | 1341 ± 11 | 1313 ± 11 | 3.605 ± 0.16 | 2.725 ± 0.12
x1 = 0.2474 | 868.27 ± 0.65 | 860.66 ± 0.66 | 1348 ± 11 | 1320 ± 11 | 3.31 ± 0.15 | 2.511 ± 0.11
x1 = 0.3028 | 879.53 ± 0.63 | 871.83 ± 0.64 | 1358 ± 11 | 1332 ± 11 | 2.986 ± 0.13 | 2.306 ± 0.11
x1 = 0.3426 | 887.67 ± 0.61 | 879.89 ± 0.63 | 1365 ± 11 | 1340 ± 11 | 2.744 ± 0.12 | 2.148 ± 0.099
x1 = 0.3978 | 899.01 ± 0.59 | 891.14 ± 0.6 | 1375 ± 11 | 1351 ± 11 | 2.491 ± 0.11 | 1.961 ± 0.091
x1 = 0.4512 | 910.05 ± 0.57 | 902.09 ± 0.58 | 1385 ± 11 | 1362 ± 11 | 2.266 ± 0.1 | 1.805 ± 0.084
x1 = 0.4985 | 919.88 ± 0.55 | 911.85 ± 0.56 | 1394 ± 11 | 1371 ± 11 | 2.085 ± 0.096 | 1.692 ± 0.079
x1 = 0.5526 | 931.2 ± 0.53 | 923.08 ± 0.54 | 1404 ± 11 | 1382 ± 11 | 1.93 ± 0.09 | 1.583 ± 0.075
x1 = 0.6071 | 942.67 ± 0.5 | 934.47 ± 0.52 | 1415 ± 11 | 1393 ± 11 | 1.798 ± 0.084 | 1.488 ± 0.071
x1 = 0.6491 | 951.55 ± 0.49 | 943.29 ± 0.5 | 1424 ± 11 | 1402 ± 11 | 1.744 ± 0.082 | 1.442 ± 0.069
x1 = 0.7101 | 964.53 ± 0.46 | 956.19 ± 0.48 | 1437 ± 11 | 1414 ± 11 | 1.65 ± 0.078 | 1.431 ± 0.068
x1 = 0.7485 | 972.75 ± 0.45 | 964.35 ± 0.46 | 1445 ± 11 | 1421 ± 11 | 1.664 ± 0.078 | 1.426 ± 0.068
x1 = 0.8019 | 984.23 ± 0.42 | 975.77 ± 0.44 | 1457 ± 12 | 1430 ± 11 | 1.673 ± 0.079 | 1.455 ± 0.069
x1 = 0.8521 | 995.09 ± 0.4 | 986.56 ± 0.42 | 1467 ± 12 | 1439 ± 11 | 1.691 ± 0.079 | 1.465 ± 0.07
x1 = 0.9045 | 1006.5 ± 0.41 | 997.88 ± 0.4 | 1476 ± 12 | 1445 ± 11 | 1.71 ± 0.08 | 1.48 ± 0.07
x1 = 0.9554 | 1017.63 ± 0.44 | 1008.95 ± 0.42 | 1485 ± 12 | 1451 ± 12 | 1.727 ± 0.081 | 1.496 ± 0.071
